Data as given in PubChem BioAssay AID588607 (Sanford-Burnham Center for Chemical Genomics, 2011).
Activity calls are given as the source filed them.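 Rule for the calls: active = mean EC50 below 100 µM; inactive = the rest.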

Target: placental alkaline phosphatase (human)
Experiment: placental alkaline phosphatase activators or inhibitors – biochemical, human PLAP, set 2, selectivity assay for mouse IAP activator project, SAR follow-up (AID 588607)
Conditions: purified PLAP, CDP-Star luminescence, 30 min

Row | SMILES | EC50 | IC50 (inhibition of PLAP activity) [µM]
1 | CN(C)S(=O)(=O)c1ccc(NC(=S)NCCc2ccccc2)cc1 | > 100 µM (inactive) | –
2 | CC1CCN(S(=O)(=O)c2ccc(NC(=S)NCCC(c3ccccc3)c3ccccc3)cc2)CC1 | – | 31.9
3 | CN(C)S(=O)(=O)c1ccc(NC(=S)NC(c2ccccc2)c2ccccc2)cc1 | – | 29
4 | Cc1ccc(CNC(=S)Nc2ccc(S(=O)(=O)N(C)C)cc2)cc1 | – | 78.6
5 | CCN(CC)CCCNC(=S)Nc1cccc(S(=O)(=O)N(C)C)c1 | > 100 µM (inactive) | –
6 | Cc1ccc(CNC(=S)Nc2cccc(S(=O)(=O)N(C)C)c2)cc1 | – | 82.8
7 | O=C(NC(=S)Nc1cc(S(=O)(=O)N2CCOCC2)ccc1O)c1ccco1 | – | 43.6
8 | COc1cccc(CCNC(=S)Nc2cccc(S(=O)(=O)N(C)C)c2)c1 | – | 78.6
9 | CN(CCc1ccccc1)C(=S)Nc1cccc(S(=O)(=O)N(C)C)c1 | > 100 µM (inactive) | –
10 | CCOc1cc(CCNC(=S)Nc2ccc(S(=O)(=O)N(C)C)cc2)ccc1OC | – | 89.9
11 | O=S(=O)(c1ccc(NC(=S)NCC(c2ccccc2)c2ccccc2)cc1)N1CCCC1 | – | 19.5
12 | O=c1c2ccccc2[nH]c(=S)n1-c1cccc(S(=O)(=O)N2CCCC2)c1 | > 100 µM (inactive) | –
13 | CN(C)S(=O)(=O)c1ccc(NC(=S)NCc2ccc(Cl)cc2)cc1 | > 100 µM (inactive) | –
14 | CC(CNC(=S)Nc1cccc(S(=O)(=O)N(C)C)c1)N1CCN(c2ccccc2)CC1 (stereo unspecified) | > 100 µM (inactive) | –
15 | CN(C)S(=O)(=O)c1cccc(NC(=S)NCCCn2ccnc2)c1 | > 100 µM (inactive) | –
16 | O=C(NC(=S)Nc1cc(S(=O)(=O)N2CCOCC2)ccc1N1CCOCC1)c1ccco1 | > 100 µM (inactive) | –
17 | CN(C)S(=O)(=O)c1cccc(NC(=S)NCCc2ccccc2)c1 | – | 86.6
18 | CN(C)S(=O)(=O)c1cccc(NC(=S)NCCc2cccc(F)c2)c1 | > 100 µM (inactive) | –
19 | CCN(CC)S(=O)(=O)c1ccc(NC(=S)NC(c2ccccc2)c2ccccc2)cc1 | – | 26.3
20 | CN(C)S(=O)(=O)c1cccc(NC(=S)NCCC(c2ccccc2)c2ccccc2)c1 | – | 93
21 | CCN(CC)S(=O)(=O)c1ccc(NC(=S)NCCC(c2ccccc2)c2ccccc2)cc1 | – | 52.5
22 | O=S(=O)(c1ccc(NC(=S)NCCC(c2ccccc2)c2ccccc2)cc1)N1CCCCC1 | – | 38.6

Row | SMILES | EC50 | IC50 (inhibition of PLAP activity) [µM]
23 | CN(C)S(=O)(=O)c1cccc(NC(=S)NCCc2ccc(F)cc2)c1 | > 100 µM (inactive) | –
24 | O=S(=O)(c1ccc(NC(=S)NCC(c2ccccc2)c2ccccc2)cc1)N1CCCCC1 | – | 29.6
25 | CC(CCc1ccccc1)NC(=S)Nc1cccc(S(=O)(=O)N(C)C)c1 (stereo unspecified) | – | 69.2
26 | CN(C)S(=O)(=O)c1cccc(NC(=S)NC(C)(C)CC(C)(C)C)c1 | – | 85.7
27 | CC1CCN(S(=O)(=O)c2ccc(NC(=S)NC(c3ccccc3)c3ccccc3)cc2)CC1 | – | 47.2
28 | CN(C)CCCNC(=S)Nc1cccc(S(=O)(=O)N(C)C)c1 | > 100 µM (inactive) | –
29 | CN(C)S(=O)(=O)c1cccc(NC(=S)NCC(c2ccccc2)c2ccccc2)c1 | – | 35.9
30 | CN(C)S(=O)(=O)c1ccc(NC(=S)NCCN2CCCC2)cc1 | > 100 µM (inactive) | –
31 | Cc1ccc(C)c(NC(=S)Nc2ccc(S(=O)(=O)N3CCCCC3)cc2)c1 | > 100 µM (inactive) | –
32 | Cc1ccccc1CNC(=S)Nc1ccc(S(=O)(=O)N(C)C)cc1 | – | 71.8
33 | CN(C)S(=O)(=O)c1cccc(NC(=S)NCCN2CCCC2)c1 | > 100 µM (inactive) | –
34 | Cc1ccc(S(=O)(=O)N(C)C)cc1NC(=S)NC(C)CCC(C)C (stereo unspecified) | – | 78.5
35 | O=S(=O)(c1ccc(NC(=S)NCc2cccc(F)c2)cc1)N1CCCCC1 | – | 78.1
36 | O=S(=O)(c1ccc(NC(=S)NC(c2ccccc2)c2ccccc2)cc1)N1CCCCC1 | – | 16.6
37 | CN(C)S(=O)(=O)c1ccc(NC(=S)NCCC(c2ccccc2)c2ccccc2)cc1 | – | 35
38 | CN(C)CC(C)(C)CNC(=S)Nc1cccc(S(=O)(=O)N(C)C)c1 | > 100 µM (inactive) | –
39 | COc1cccc(CNC(=S)Nc2ccc(S(=O)(=O)N(C)C)cc2)c1 | – | 91
40 | COc1ccc(CNC(=S)Nc2ccc(S(=O)(=O)N3CCCCC3)cc2)cc1OC | – | 68.6
41 | CN(C)S(=O)(=O)c1ccc(NC(=S)NCC(c2ccccc2)c2ccccc2)cc1 | – | 40.8
42 | CN(C)S(=O)(=O)c1cccc(NC(=S)NCCc2ccc(Br)cc2)c1 | – | 92
43 | CC1CC(NC(=S)Nc2cccc(S(=O)(=O)N(C)C)c2)CC(C)N1 (stereo unspecified) | > 100 µM (inactive) | –
44 | Cc1ccc(S(=O)(=O)N(C)C)cc1NC(=S)NC1CCN(Cc2ccccc2)CC1 | > 100 µM (inactive) | –

Row | SMILES | EC50 | IC50 (inhibition of PLAP activity) [µM]
45 | Cc1ccc(S(=O)(=O)N(C)C)cc1NC(=S)NCCCn1ccnc1 | > 100 µM (inactive) | –
46 | COc1ccccc1CNC(=S)Nc1ccc(S(=O)(=O)N(C)C)cc1 | – | 69.6
47 | CCN(CC)c1ccc(C(=O)NC(=S)Nc2cc(S(=O)(=O)N3CCOCC3)ccc2-n2cncn2)cc1 | > 100 µM (inactive) | –
48 | Cc1ccc(S(=O)(=O)N(C)C)cc1NC(=S)NC(C)CCCC(C)C (stereo unspecified) | – | 66.1
49 | COc1ccc(CCNC(=S)Nc2ccc(S(=O)(=O)N3CCCCC3)cc2)cc1 | – | 70.8
50 | CCN(CC)S(=O)(=O)c1ccc(NC(=S)NCC(c2ccccc2)c2ccccc2)cc1 | – | 30.1
51 | CN(C)S(=O)(=O)c1ccc(NC(=S)NCCc2cccc(Br)c2)cc1 | – | 57
52 | Cc1ccc(S(=O)(=O)N(C)C)cc1NC(=S)NC(=O)C12CC3CC(CC(C3)C1)C2 | > 100 µM (inactive) | –
53 | O=C(CCc1ccccc1)NC(=S)Nc1cccc(S(=O)(=O)N2CCCC2)c1 | > 100 µM (inactive) | –
54 | CN(C)S(=O)(=O)c1ccc(NC(=S)NCCc2cccc(O)c2)cc1 | > 100 µM (inactive) | –
55 | CN(C)S(=O)(=O)c1cccc(NC(=S)NCCC(=O)N2CCCC2)c1 | > 100 µM (inactive) | –
56 | CCCCCCC(C)NC(=S)Nc1cc(S(=O)(=O)N(C)C)ccc1C (stereo unspecified) | > 100 µM (inactive) | –
57 | CN(C)S(=O)(=O)c1cccc(NC(=S)NCCc2cccc(Br)c2)c1 | – | 73
58 | O=S(=O)(c1ccc(NC(=S)NCCC(c2ccccc2)c2ccccc2)cc1)N1CCCC1 | – | 42
59 | CN(CCc1ccccn1)C(=S)Nc1cccc(S(=O)(=O)N(C)C)c1 | > 100 µM (inactive) | –
60 | CN(C)S(=O)(=O)c1cccc(NC(=S)NCCCN2CCCC2=O)c1 | > 100 µM (inactive) | –
61 | O=S(=O)(c1ccc(NC(=S)NCc2cccc(Cl)c2)cc1)N1CCCCC1 | – | 84.9
62 | COc1ccc(CCNC(=S)Nc2ccc(S(=O)(=O)N3CCCCC3)cc2)cc1OC | – | 81.9
63 | CN(C)S(=O)(=O)c1cccc(NC(=S)NCCc2cccc(O)c2)c1 | > 100 µM (inactive) | –
64 | CN(C)S(=O)(=O)c1cccc(NC(=S)NCc2ccc(Cl)cc2)c1 | > 100 µM (inactive) | –
65 | O=S(=O)(c1ccc(NC(=S)NC(c2ccccc2)c2ccccc2)cc1)N1CCCC1 | – | 22.1
66 | CN(C)S(=O)(=O)c1cccc(NC(=S)NC(c2ccccc2)c2ccccc2)c1 | – | 31.2
